The source of these data is US10624972B2, “Conjugates for treating diseases” (priority 2015, dated 2020).

pIC50: −log10 of the molar value. Like-named read-outs stand apart in the source and are kept apart here. *1 amine or outer side, *2 acyl side, *3 side chain or, on linkers, in order; H or OH if unused. Where a SMILES comes first, the peptide text is derived from it. The star is where a group is joined. X2 = COc1cc(N)c(C(=O)N2c3ccccc3C[C@H]2C2OCCN2C(=O)OCc2ccc(S*)cc2)cc1OC; Pteroyl = Nc1nc2ncc(CNc3ccc(C(=O)*)cc3)nc2c(=O)[nH]1; γGlu = O=C(O)[C@H](CCC(=O)[*:2])N[*:1] Some results are limits rather than exact numbers.

In the assay the test system is KB cells. The assay is described as follows: cells. In kind it is cell-based, Human. How it is done: METHOD. Inhibition of Cellular DNA Synthesis. The conjugates described herein were evaluated using an in vitro cytotoxicity assay that predicted the ability of the drug to inhibit the growth of the corresponding targeted cells, such as, but not limited to the following
It is to be understood that the choice of cell type can be made on the basis of the susceptibility of those selected cells to the drug that forms the conjugate, and the relative expression of the cell surface receptor or target antigen. The test conjugates were conjugates of a cell surface receptor or target antigen binding compound and PBD prodrugs, poly-PBD prodrugs, and mixed PBDs, as described herein. The test cells were exposed to varying concentrations of the conjugates, and optionally also in the absence or presence of at least a 100-fold excess of the unconjugated cell surface receptor or target antigen binding compound for competition studies to assess activity as being specific to the cell surface receptor or target antigen.
EXAMPLE. Conjugates of PBD prodrugs, poly-PBD prodrugs, and mixed PBDs described herein were active against KB cells. The activity was mediated by the folate receptor as indicated by competition experiments using co-administered folic acid. KB cells were exposed for up to 7 h at 37° C. to the indicated concentrations of folate-drug conjugate in the absence or presence of at least a 100-fold excess of folic acid. The cells were then rinsed once with fresh culture medium and incubated in fresh culture medium for 72 hours at 37° C. Cell viability was assessed using a ^3H-thymidine incorporation assay. For conjugates described herein, dose-dependent cytotoxicity was generally measurable, and in most cases, the IC50 values (concentration of drug conjugate required to reduce ^3H-thymidine incorporation into newly synthesized DNA by 50%) were in the low nanomolar range.

A word on the pIC50: it is the negative decadic logarithm of the IC50, by convention in mol/L. Take `C=C1C[C@@H](C2OCCN2C(=O)OCc2ccc(NC(=O)[C@H](C)NC(=O)[C@@H](NC(=O)CCOCCOCCOCCOCCNC(=O)CCN3C(=O)CC(SC[C@@H](NC(=O)[C@H](CCC(=O)NC[C@H](O)[C@@H](O)[C@H](O)[C@H](O)CO)NC(=O)[C@@H](CCC(=O)O)NC(=O)[C@H](CCC(=O)NC[C@H](O)[C@@H](O)[C@H](O)[C@H](O)CO)NC(=O)[C@@H](CCC(=O)O)NC(=O)[C@H](CCC(=O)NC[C@H](O)[C@@H](O)[C@H](O)[C@H](O)CO)NC(=O)CC[C@H](NC(=O)c4ccc(NCc5cnc6nc(N)[nH]c(=O)c6n5)cc4)C(=O)O)C(=O)O)C3=O)C(C)C)cc2)N(C(=O)c2cc(OC)c(OCCCCCOc3cc(N)c(C(=O)N4CC(=C)C[C@H]4C4OCCN4C(=O)OCc4ccc([N+](=O)[O-])cc4)cc3OC)cc2N)C1` (stereo partly shown) [EC2127]: where the note is “3 h”, the pIC50 is 8.87. Turning to `C=C1C[C@@H](C2OCCN2C(=O)OCCSSc2ccccn2)N(C(=O)c2cc(OC)c(OCCCCCOc3cc(N)c(C(=O)N4CC(=C)C[C@H]4C4OCCN4C(=O)OCCSSc4ccccn4)cc3OC)cc2N)C1` (stereo partly shown) [EC1695], the pIC50 reads like this: (Homo sapiens, KB cells, 3H-thymidine incorporation, read-out: IC50 KB Cells) at most 7.00; (Homo sapiens, KB cells, co-administered with dithiothreitol (DTT), read-out: IC50 KB Cells) 9.00.

The compound `C=C1C[C@@H](C2OCCN2C(=O)OCCSSC[C@@H](NC(=O)[C@H](CCC(=O)NC[C@H](O)[C@@H](O)[C@H](O)[C@H](O)CO)NC(=O)[C@@H](CCC(=O)O)NC(=O)[C@H](CCC(=O)NC[C@H](O)[C@@H](O)[C@H](O)[C@H](O)CO)NC(=O)[C@@H](CCC(=O)O)NC(=O)[C@H](CCC(=O)NC[C@H](O)[C@@H](O)[C@H](O)[C@H](O)CO)NC(=O)CC[C@H](NC(=O)c2ccc(NCc3cnc4nc(N)[nH]c(=O)c4n3)cc2)C(=O)O)C(=O)O)N(C(=O)c2cc(OC)c(OCCCCCOc3cc(N)c(C(=O)N4CC(=C)C[C@H]4C4OCCN4C(=O)OCCSSc4ccccn4)cc3OC)cc2N)C1` (stereo partly shown) [EC1949] had a pIC50 (3 h) of 8.83. For the compound `COc1cc(N)c(C(=O)N2c3ccccc3C[C@H]2C2OCCN2C(=O)OCc2ccc(SSC[C@H](NC(=O)[C@H](CC(=O)O)NC(=O)[C@H](CC(=O)O)NC(=O)[C@H](CCCNC(=N)N)NC(=O)[C@H](CC(=O)O)NC(=O)CC[C@H](NC(=O)c3ccc(NCc4cnc5nc(N)[nH]c(=O)c5n4)cc3)C(=O)O)C(=O)O)cc2)cc1OC` (stereo partly shown) [EC1673] ({Pteroyl-γGlu}-DRDDC(X2)-OH), the pIC50 is at most 6.00.

`C=C1C[C@H]2C(=O)Nc3cc(OCCCCCOc4cc(N)c(C(=O)N5CC(=C)C[C@H]5C5OCCN5C(=O)OCc5ccc(NC(=O)[C@H](C)NC(=O)[C@@H](NC(=O)CCOCCOCCOCCOCCNC(=O)CCN6C(=O)CC(SC[C@@H](NC(=O)[C@H](CCC(=O)NC[C@H](O)[C@@H](O)[C@H](O)[C@H](O)CO)NC(=O)[C@@H](CCC(=O)O)NC(=O)[C@H](CCC(=O)NC[C@H](O)[C@@H](O)[C@H](O)[C@H](O)CO)NC(=O)[C@@H](CCC(=O)O)NC(=O)[C@H](CCC(=O)NC[C@H](O)[C@@H](O)[C@H](O)[C@H](O)CO)NC(=O)CC[C@H](NC(=O)c7ccc(NCc8cnc9nc(N)[nH]c(=O)c9n8)cc7)C(=O)O)C(=O)O)C6=O)C(C)C)cc5)cc4OC)c(OC)cc3C(=O)N2C1` (stereo partly shown) [EC2074]: the pIC50 (3 h) was 8.44. The compound `C=C1C[C@@H](C2OCCN2C(=O)OCc2ccc(NC(=O)[C@H](C)NC(=O)[C@@H](NC(=O)CCOCCOCCOCCOCCNC(=O)CCN3C(=O)CC(SC[C@@H](NC(=O)[C@H](CCC(=O)NC[C@H](O)[C@@H](O)[C@H](O)[C@H](O)CO)NC(=O)[C@@H](CCC(=O)O)NC(=O)[C@H](CCC(=O)NC[C@H](O)[C@@H](O)[C@H](O)[C@H](O)CO)NC(=O)[C@@H](CCC(=O)O)NC(=O)[C@H](CCC(=O)NC[C@H](O)[C@@H](O)[C@H](O)[C@H](O)CO)NC(=O)CC[C@H](NC(=O)c4ccc(NCc5cnc6nc(N)[nH]c(=O)c6n5)cc4)C(=O)O)C(=O)O)C3=O)C(C)C)cc2)N(C(=O)c2cc(OC)c(OCCCCCOc3ccc(-c4nc5ccc(-c6nc7cc(N8CCN(C)CC8)ccc7[nH]6)cc5[nH]4)cc3)cc2N)C1` (stereo partly shown) [EC2080] had a pIC50 (3 h) of 9.70.
